Values quoted from earlier work, collected in PMC6510909 (Investigational New Drugs, 2018).
Read-outs that look alike come from different tables or passages of the source.

Key:
pancreatic cancer = conditions: nab-P + G group, MPACT trial; cited from earlier work
[1] = system: patients with metastatic pancreatic cancer that was refractory to gemcitabine; design: method as in PMID 26351344; conditions: with capecitabine, cited from earlier work
[2] = system: patients with advanced/metastatic pancreatic cancer; design: method as in earlier work; conditions: JANUS-1 interim analysis; P = 0.409; cited from earlier work
[3] = system: patients with advanced/metastatic pancreatic cancer; design: method as in earlier work; conditions: JANUS-2 interim analysis; P = 0.942; cited from earlier work

Molecule	Median OS (pancreatic cancer) [months]	HR for OS, ruxolitinib vs placebo ([1]; overall study population, P = 0.25)	HR for OS, ruxolitinib vs placebo ([1]; subgroup with C-reactive peptide >13 mg/L, P = 0.011)	HR for OS, ruxolitinib vs placebo [2]	HR for OS, ruxolitinib vs placebo [3]
albumin-bound paclitaxel + gemcitabine [nab-P + G]	8.5				
N#CC[C@H](C1CCCC1)n1cc(-c2ncnc3[nH]ccc23)cn1 [ruxolitinib]		0.79 [95% CI, 0.53–1.18]	0.47 [95% CI, 0.26–0.85]	0.969 [95% CI, 0.75–1.26]	1.584 [95% CI, 0.89–2.83]
